Test results from the supplement of paper PMC10307832.

Legend:
Assay in all cases: relative viability (nuclei count vs DMSO), 5 days (fraction); higher = more cells survive
Bromopyruvate + AZD7762 = compound: C(C(=O)C(=O)O)Br [Bromopyruvate] + NC(=O)Nc1cc(-c2cccc(F)c2)sc1C(=O)N[C@H]1CCCNC1 [AZD7762] (partner 0.2 µM)
How it was run: (§1)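 Each reported value is a median over duplicate plates. It expresses relative viability: treated-well nuclei count divided by vehicle-well nuclei count. Lung cancer cell lines in 1536-well plates were dosed by pin tool a day after seeding, alone with one drug or with a fixed anchor-drug dose plus five library-drug doses (not always all listed) in √10 steps, and nuclei were counted after 5 days.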

[1] = compound: C(C(=O)C(=O)O)Br [Bromopyruvate] + CC(=O)c1c(C)c2cnc(Nc3ccc(N4CCNCC4)cn3)nc2n(C2CCCC2)c1=O [Palbociclib] (partner 0.5 µM)
How it was run: as §1

[2] = compound: CC(O)(CS(=O)(=O)c1ccc(F)cc1)C(=O)Nc1ccc(C#N)c(C(F)(F)F)c1 [Bicalutamide] + CC(=O)c1c(C)c2cnc(Nc3ccc(N4CCNCC4)cn3)nc2n(C2CCCC2)c1=O [Palbociclib] (partner 0.5 µM)
How it was run: as §1

[3] = compound: C(C(=O)C(=O)O)Br [Bromopyruvate] + CCNC(=O)c1noc(-c2cc(C(C)C)c(O)cc2O)c1-c1ccc(CN2CCOCC2)cc1 [Luminespib] (partner 0.01 µM)
How it was run: as §1

Row | Cell Line | relative viability (Bromopyruvate + AZD7762; first compound 1 µM) | relative viability (Bromopyruvate + AZD7762; first compound 3.162 µM) | relative viability (Bromopyruvate + AZD7762; first compound 10 µM) | relative viability (Bromopyruvate + AZD7762; first compound 31.62 µM) | relative viability (Bromopyruvate + AZD7762; first compound 100 µM) | relative viability ([1]; first compound 1 µM) | relative viability ([1]; first compound 3.162 µM) | relative viability ([1]; first compound 10 µM) | relative viability ([1]; first compound 31.62 µM) | relative viability ([1]; first compound 100 µM) | relative viability ([2]; first compound 0.08 µM) | relative viability ([2]; first compound 0.253 µM) | relative viability ([2]; first compound 0.8 µM) | relative viability ([2]; first compound 2.53 µM) | relative viability ([3]; first compound 1 µM) | relative viability ([3]; first compound 3.162 µM) | relative viability ([3]; first compound 10 µM) | relative viability ([3]; first compound 31.62 µM) | relative viability ([3]; first compound 100 µM)
1 | LU99A | 0.318 | 0.364 | 0.346 | 0.362 | 0.341 | 0.404 | 0.414 | 0.478 | 0.493 | 0.2 | 0.386 | 0.36 | 0.531 | 0.393 | 0.301 | 0.313 | 0.273 | 0.248 | 0.213
2 | NCI-H1355 | 0.744 | 0.882 | 0.664 | 0.737 | 0.648 | 0.388 | 0.401 | 0.356 | 0.373 | 0.407 | 0.4 | 0.382 | 0.437 | 0.374 | 0.721 | 0.77 | 0.649 | 0.735 | 0.698
3 | HCC-78 | 0.481 | 0.624 | 0.565 | 0.549 | 0.463 | 0.446 | 0.471 | 0.455 | 0.514 | 0.407 | 0.464 | 0.513 | 0.499 | 0.476 | – | – | – | – | –
4 | NCI-H1563 | – | – | – | – | – | – | – | – | – | – | – | – | – | – | 0.482 | 0.559 | 0.489 | 0.466 | 0.532
5 | HCC-15 | 1.22 | 1.25 | 1.32 | 1.25 | 1.22 | 0.654 | 0.677 | 0.846 | 0.771 | 0.741 | 0.727 | 0.501 | 0.79 | 0.767 | 0.363 | 0.416 | 0.509 | 0.328 | 0.25
6 | EKVX | 0.818 | 0.791 | 0.662 | 0.61 | 0.693 | 0.217 | 0.387 | 0.459 | 0.494 | 0.44 | 0.381 | 0.392 | 0.445 | 0.374 | 0.824 | 0.883 | 1.22 | 0.811 | 1.02
7 | NCI-H2126 | 0.989 | 1.04 | 1.2 | 0.953 | 1.04 | 0.34 | 0.335 | 0.306 | 0.375 | 0.343 | 0.339 | 0.339 | 0.344 | 0.32 | 0.888 | 0.892 | 0.943 | 0.896 | 0.874
8 | LK-2 | 0.423 | 0.458 | 0.266 | 0.474 | 0.387 | 0.688 | 0.858 | 0.797 | 0.637 | 0.678 | 0.665 | 0.511 | 0.783 | 0.63 | 0.166 | 0.182 | 0.158 | 0.161 | 0.199
9 | NCI-H1437 | 1.15 | 1.1 | 1.22 | 1.12 | 1.14 | 0.342 | 0.285 | 0.323 | 0.314 | 0.305 | 0.305 | 0.283 | 0.342 | 0.343 | 1.16 | 1.19 | 1.16 | 1.12 | 1.1
